Test results from PubChem BioAssay (NCI).
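All cell lines were grown in 96-well plates and treated with compound for 48 hours. GI50 = concentration required for 50% inhibition of growth. TGI: total growth inhibition.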

Tests used:
Assay in all cases: inhibition of tumour cell growth, NCI panel, 48 h
UACC-257 melanoma = system: UACC-257 melanoma
UACC-62 melanoma = system: UACC-62 melanoma
SF-268 CNS = system: SF-268 CNS
CCRF-CEM leukemia = system: CCRF-CEM leukemia
NCI-H23 lung = system: NCI-H23 lung
SNB-75 CNS = system: SNB-75 CNS
SK-MEL-5 melanoma = system: SK-MEL-5 melanoma
786-0 renal = system: 786-0 renal
OVCAR-3 ovarian = system: OVCAR-3 ovarian
SK-OV-3 ovarian = system: SK-OV-3 ovarian

Q: Which TGI (UACC-257 melanoma) does the source give for C/C(CN1C(=O)c2ccccc2C1=O)=N\NS(=O)(=O)c1ccccc1 here?
A: > 100 µM

Q: And the TGI (UACC-62 melanoma)?
A: > 100 µM

Q: What about the TGI (SF-268 CNS) of the same compound?
A: > 100 µM

Q: And the TGI (CCRF-CEM leukemia)?
A: > 100 µM

Q: What about the TGI (NCI-H23 lung) of the same compound?
A: > 100 µM

Q: And the TGI (SNB-75 CNS)?
A: > 100 µM

Q: And the TGI (SK-MEL-5 melanoma)?
A: > 100 µM

Q: What about the TGI (786-0 renal) of the same compound?
A: > 100 µM

Q: What about the TGI (OVCAR-3 ovarian) of the same compound?
A: > 100 µM

Q: And the TGI (SK-OV-3 ovarian)?
A: > 100 µM

Q: COc1ccc2c(c1)C(=O)c1c-2n(CCCN=[N+]=[N-])c(=O)c2ccccc12 was tested. Which GI50 (UACC-257 melanoma) did it give?
A: > 100 µM

Q: And the TGI (UACC-257 melanoma)?
A: > 100 µM

Q: What about the GI50 (UACC-62 melanoma) of the same compound?
A: 75.5 µM

Q: And the TGI (UACC-62 melanoma)?
A: > 100 µM

Q: What about the GI50 (SF-268 CNS) of the same compound?
A: 39.8 µM

Q: And the TGI (SF-268 CNS)?
A: > 100 µM

Q: And the GI50 (CCRF-CEM leukemia)?
A: 10.1 µM

Q: And the TGI (CCRF-CEM leukemia)?
A: > 100 µM

Q: What about the GI50 (NCI-H23 lung) of the same compound?
A: 50.4 µM

Q: What about the TGI (NCI-H23 lung) of the same compound?
A: > 100 µM

Q: And the GI50 (SNB-75 CNS)?
A: 18.8 µM

Q: And the TGI (SNB-75 CNS)?
A: 65.2 µM

Q: And the GI50 (SK-MEL-5 melanoma)?
A: 14.6 µM

Q: What about the TGI (SK-MEL-5 melanoma) of the same compound?
A: > 100 µM

Q: What about the GI50 (786-0 renal) of the same compound?
A: 27.9 µM

Q: What about the TGI (786-0 renal) of the same compound?
A: > 100 µM

Q: And the GI50 (OVCAR-3 ovarian)?
A: 52.4 µM

Q: What about the TGI (OVCAR-3 ovarian) of the same compound?
A: > 100 µM

Q: What about the GI50 (SK-OV-3 ovarian) of the same compound?
A: 20.3 µM

Q: And the TGI (SK-OV-3 ovarian)?
A: 69.5 µM

Q: With C=CCN1C(=O)/C(=c2\sc3n(c2=O)C2C(NN=3)N(CC)C(=O)N2CC)c2ccccc21 (centres undefined) as the compound, how does the TGI (UACC-257 melanoma) read?
A: > 100 µM

Q: What about the GI50 (UACC-62 melanoma) of the same compound?
A: 0.612 µM

Q: What about the TGI (UACC-62 melanoma) of the same compound?
A: > 62.1 µM

Q: And the GI50 (SF-268 CNS)?
A: 1.26 µM

Q: What about the TGI (SF-268 CNS) of the same compound?
A: > 100 µM

Q: And the GI50 (CCRF-CEM leukemia)?
A: 0.469 µM

Q: What about the TGI (CCRF-CEM leukemia) of the same compound?
A: > 100 µM

Q: And the GI50 (NCI-H23 lung)?
A: 0.88 µM

Q: And the TGI (NCI-H23 lung)?
A: > 50.7 µM

Q: And the GI50 (SNB-75 CNS)?
A: 0.254 µM

Q: And the TGI (SNB-75 CNS)?
A: 2.98 µM

Q: What about the GI50 (SK-MEL-5 melanoma) of the same compound?
A: 0.421 µM

Q: And the TGI (SK-MEL-5 melanoma)?
A: 2.05 µM

Q: And the GI50 (786-0 renal)?
A: 0.708 µM

Q: What about the TGI (786-0 renal) of the same compound?
A: 14.9 µM

Q: And the GI50 (OVCAR-3 ovarian)?
A: 0.377 µM

Q: What about the TGI (OVCAR-3 ovarian) of the same compound?
A: 2.35 µM

Q: What about the GI50 (SK-OV-3 ovarian) of the same compound?
A: 1.45 µM

Q: What about the TGI (SK-OV-3 ovarian) of the same compound?
A: > 23.9 µM

Q: What does the source list for CC1C2Cc3ccc(O)cc3C1(C)CCN2C (centres undefined)?
A: TGI (UACC-257 melanoma): > 100 µM; TGI (UACC-62 melanoma): > 100 µM; TGI (SF-268 CNS): > 100 µM; TGI (CCRF-CEM leukemia): > 100 µM; TGI (NCI-H23 lung): > 100 µM; TGI (SNB-75 CNS): > 100 µM; TGI (SK-MEL-5 melanoma): > 100 µM; TGI (786-0 renal): > 100 µM; TGI (OVCAR-3 ovarian): > 100 µM; TGI (SK-OV-3 ovarian): > 100 µM

Q: For CCOc1ccc(Cc2nccc3cc(OCC)c(OCC)cc23)cc1OCC, which GI50 (UACC-257 melanoma) is on record?
A: 3.34 µM

Q: What about the TGI (UACC-257 melanoma) of the same compound?
A: 14.6 µM

Q: And the GI50 (UACC-62 melanoma)?
A: 2.72 µM

Q: And the TGI (UACC-62 melanoma)?
A: 16.5 µM

Q: What about the GI50 (SF-268 CNS) of the same compound?
A: 11.3 µM

Q: What about the TGI (SF-268 CNS) of the same compound?
A: 36.7 µM

Q: And the GI50 (CCRF-CEM leukemia)?
A: 8.45 µM

Q: What about the TGI (CCRF-CEM leukemia) of the same compound?
A: 65.1 µM

Q: And the GI50 (NCI-H23 lung)?
A: 1.93 µM

Q: What about the TGI (NCI-H23 lung) of the same compound?
A: 21.6 µM

Q: And the GI50 (SNB-75 CNS)?
A: 13.4 µM

Q: And the TGI (SNB-75 CNS)?
A: 41.9 µM

Q: What about the GI50 (SK-MEL-5 melanoma) of the same compound?
A: 1.61 µM

Q: What about the TGI (SK-MEL-5 melanoma) of the same compound?
A: 4.19 µM

Q: What about the GI50 (786-0 renal) of the same compound?
A: 9.57 µM

Q: And the TGI (786-0 renal)?
A: 40.4 µM

Q: What about the GI50 (OVCAR-3 ovarian) of the same compound?
A: 10.5 µM

Q: And the TGI (OVCAR-3 ovarian)?
A: 23.6 µM

Q: And the GI50 (SK-OV-3 ovarian)?
A: 16.3 µM

Q: And the TGI (SK-OV-3 ovarian)?
A: 58.2 µM

Q: For O=C1NC(=NCC(CO)c2ccccc2)S/C1=C\c1ccc2ncccc2c1 (centres undefined), which GI50 (UACC-257 melanoma) is on record?
A: > 25 µM

Q: And the TGI (UACC-257 melanoma)?
A: > 25 µM

Q: What about the GI50 (UACC-62 melanoma) of the same compound?
A: > 25 µM

Q: And the TGI (UACC-62 melanoma)?
A: > 25 µM

Q: What about the GI50 (SF-268 CNS) of the same compound?
A: > 16.9 µM

Q: What about the TGI (SF-268 CNS) of the same compound?
A: > 25 µM

Q: What about the GI50 (CCRF-CEM leukemia) of the same compound?
A: 19.5 µM

Q: What about the TGI (CCRF-CEM leukemia) of the same compound?
A: > 25 µM

Q: And the GI50 (NCI-H23 lung)?
A: 12.1 µM

Q: And the TGI (NCI-H23 lung)?
A: > 25 µM

Q: What about the GI50 (SNB-75 CNS) of the same compound?
A: > 7 µM

Q: And the TGI (SNB-75 CNS)?
A: > 25 µM

Q: What about the GI50 (SK-MEL-5 melanoma) of the same compound?
A: > 25 µM

Q: What about the TGI (SK-MEL-5 melanoma) of the same compound?
A: > 25 µM

Q: And the GI50 (786-0 renal)?
A: > 25 µM

Q: And the TGI (786-0 renal)?
A: > 25 µM

Q: And the GI50 (OVCAR-3 ovarian)?
A: 13.8 µM

Q: And the TGI (OVCAR-3 ovarian)?
A: > 25 µM

Q: And the GI50 (SK-OV-3 ovarian)?
A: > 25 µM

Q: What about the TGI (SK-OV-3 ovarian) of the same compound?
A: > 25 µM

Q: Which GI50 (UACC-257 melanoma) does the source give for CCN1CCC[C@H]1c1cc(O)c2c(c1OC)C[C@H]1C[C@H]3[C@H](N)C(=O)C(C(N)=O)=C(O)[C@@]3(O)C(=O)C1=C2O here?
A: 0.126 µM

Q: And the TGI (UACC-257 melanoma)?
A: 2.11 µM

Q: And the GI50 (UACC-62 melanoma)?
A: 0.0668 µM

Q: And the TGI (UACC-62 melanoma)?
A: 1.3 µM

Q: And the GI50 (SF-268 CNS)?
A: 0.0709 µM

Q: And the TGI (SF-268 CNS)?
A: 5.25 µM

Q: And the GI50 (CCRF-CEM leukemia)?
A: 0.0634 µM

Q: What about the TGI (CCRF-CEM leukemia) of the same compound?
A: 1.73 µM

Q: What about the GI50 (NCI-H23 lung) of the same compound?
A: 0.167 µM

Q: And the TGI (NCI-H23 lung)?
A: 2.18 µM

Q: What about the GI50 (SNB-75 CNS) of the same compound?
A: 0.0609 µM

Q: And the TGI (SNB-75 CNS)?
A: 1.58 µM

Q: What about the GI50 (SK-MEL-5 melanoma) of the same compound?
A: 0.0797 µM

Q: And the TGI (SK-MEL-5 melanoma)?
A: 0.951 µM

Q: And the GI50 (786-0 renal)?
A: 0.0504 µM

Q: And the TGI (786-0 renal)?
A: 2.19 µM

Q: What about the GI50 (OVCAR-3 ovarian) of the same compound?
A: 0.13 µM

Q: And the TGI (OVCAR-3 ovarian)?
A: 3.17 µM

Q: And the GI50 (SK-OV-3 ovarian)?
A: 0.032 µM

Q: And the TGI (SK-OV-3 ovarian)?
A: 0.215 µM
